Results from patent publication US20170008888A1 (KYORIN PHARMACEUTICAL CO., LTD., priority 2014, published 2017).

Columns and labels:
Type in all cases: binding
[1] = biological target: T1, AurA (Homo sapiens, UniProt O14965); assay: Probe-based (AX9989) kinase profiling in Jurkat lysate: AurA; conditions: read-out: AurA Inhibition % at indicated screening concentration; for inhibition at 1 µM: screening concentration 1 μM; for inhibition at 10 µM: screening concentration 10 μM
T1 construct: screened for activity against several kinases in Jurkat cells; endogenous in cells; host or cells: Jurkat cell lysate
T1 sequence (O14965 1-403): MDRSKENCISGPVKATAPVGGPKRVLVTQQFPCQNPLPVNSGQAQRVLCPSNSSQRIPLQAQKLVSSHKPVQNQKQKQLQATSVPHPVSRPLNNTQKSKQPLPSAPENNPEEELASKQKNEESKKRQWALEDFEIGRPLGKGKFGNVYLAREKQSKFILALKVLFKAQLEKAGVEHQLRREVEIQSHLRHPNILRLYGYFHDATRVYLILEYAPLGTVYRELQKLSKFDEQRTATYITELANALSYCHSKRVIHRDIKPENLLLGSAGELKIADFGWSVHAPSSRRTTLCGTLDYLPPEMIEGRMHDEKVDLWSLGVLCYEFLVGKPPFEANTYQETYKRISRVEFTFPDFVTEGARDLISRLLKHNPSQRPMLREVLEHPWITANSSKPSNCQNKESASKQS
How it was run: (§1)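 Compounds were pre-incubated for 15 min at room temperature with gel-filtered Jurkat cell lysate supplemented with 20 mM MnCl2, after which the acyl phosphate ATP probe AX9989 was added at 5 μM final. Labeled active-site peptides were enriched after tryptic digestion and measured by LC/MS, with percent inhibition taken relative to samples without compound.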

[2] = tested on: AMPKa1 or AMPKa2; assay: Probe-based (AX9989) kinase profiling in Jurkat lysate: AMPKa1 or AMPKa2
How it was run: as §1

[3] = biological target: T2, ERK5 (Homo sapiens, UniProt Q13164); assay: Probe-based (AX9989 acyl phosphate ATP probe) kinase profiling in Jurkat lysate: ERK5; conditions: for IC50: calculated from percent inhibition and screening concentration, Jurkat lysate, AX9989 probe; for inhibition at 1 µM: screening concentration 1 μM; for inhibition at 1 µM / inhibition at 10 µM: read-out: ERK5 Inhibition % at indicated screening concentration; for inhibition at 10 µM: screening concentration 10 μM
T2 construct: screened for activity against several kinases in Jurkat cells; endogenous in cells; host or cells: Jurkat cell lysate
T2 sequence (Q13164 whole entry): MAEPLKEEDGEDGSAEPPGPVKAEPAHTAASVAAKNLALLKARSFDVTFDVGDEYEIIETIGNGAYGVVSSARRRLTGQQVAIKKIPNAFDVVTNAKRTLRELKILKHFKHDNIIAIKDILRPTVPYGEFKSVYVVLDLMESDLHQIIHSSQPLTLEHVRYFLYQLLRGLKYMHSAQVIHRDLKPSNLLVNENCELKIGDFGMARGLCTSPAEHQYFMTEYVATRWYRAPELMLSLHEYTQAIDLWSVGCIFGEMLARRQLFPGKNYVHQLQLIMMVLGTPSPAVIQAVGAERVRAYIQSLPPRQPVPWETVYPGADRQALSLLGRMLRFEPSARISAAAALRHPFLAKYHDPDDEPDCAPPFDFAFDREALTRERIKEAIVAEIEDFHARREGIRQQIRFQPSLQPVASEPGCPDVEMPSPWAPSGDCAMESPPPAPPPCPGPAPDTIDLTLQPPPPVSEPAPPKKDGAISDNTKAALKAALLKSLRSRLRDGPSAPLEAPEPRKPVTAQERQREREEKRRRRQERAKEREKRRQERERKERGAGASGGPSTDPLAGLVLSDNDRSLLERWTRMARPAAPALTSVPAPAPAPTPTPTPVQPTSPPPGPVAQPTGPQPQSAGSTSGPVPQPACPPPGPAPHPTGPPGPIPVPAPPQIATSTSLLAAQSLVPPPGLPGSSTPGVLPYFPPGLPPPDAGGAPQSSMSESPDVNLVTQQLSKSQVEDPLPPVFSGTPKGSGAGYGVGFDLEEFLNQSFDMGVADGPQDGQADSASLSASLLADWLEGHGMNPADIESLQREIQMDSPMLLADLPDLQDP
How it was run: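 Gel-filtered Jurkat lysate (5 mg/ml, 20 mM MnCl2) preincubated 15 min at room temperature with compound, then labelled with 5 μM AX9989 acyl phosphate ATP probe. Probe-labelled ERK5 active-site peptides quantified by LC/MS after trypsin digestion and streptavidin capture; IC50 calculated from percent inhibition at the screening concentration.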

[4] = biological target: T3, TAO2 (Homo sapiens, UniProt Q9UL54); assay: Probe-based (AX9989) kinase profiling in Jurkat lysate: TAO2; conditions: read-out: TAO2 Inhibition % at indicated screening concentration; for inhibition at 1 µM: screening concentration 1 μM; for inhibition at 10 µM: screening concentration 10 μM
T3 construct: screened for activity against several kinases in Jurkat cells; endogenous in cells; host or cells: Jurkat cell lysate
T3 sequence (Q9UL54 1-1235): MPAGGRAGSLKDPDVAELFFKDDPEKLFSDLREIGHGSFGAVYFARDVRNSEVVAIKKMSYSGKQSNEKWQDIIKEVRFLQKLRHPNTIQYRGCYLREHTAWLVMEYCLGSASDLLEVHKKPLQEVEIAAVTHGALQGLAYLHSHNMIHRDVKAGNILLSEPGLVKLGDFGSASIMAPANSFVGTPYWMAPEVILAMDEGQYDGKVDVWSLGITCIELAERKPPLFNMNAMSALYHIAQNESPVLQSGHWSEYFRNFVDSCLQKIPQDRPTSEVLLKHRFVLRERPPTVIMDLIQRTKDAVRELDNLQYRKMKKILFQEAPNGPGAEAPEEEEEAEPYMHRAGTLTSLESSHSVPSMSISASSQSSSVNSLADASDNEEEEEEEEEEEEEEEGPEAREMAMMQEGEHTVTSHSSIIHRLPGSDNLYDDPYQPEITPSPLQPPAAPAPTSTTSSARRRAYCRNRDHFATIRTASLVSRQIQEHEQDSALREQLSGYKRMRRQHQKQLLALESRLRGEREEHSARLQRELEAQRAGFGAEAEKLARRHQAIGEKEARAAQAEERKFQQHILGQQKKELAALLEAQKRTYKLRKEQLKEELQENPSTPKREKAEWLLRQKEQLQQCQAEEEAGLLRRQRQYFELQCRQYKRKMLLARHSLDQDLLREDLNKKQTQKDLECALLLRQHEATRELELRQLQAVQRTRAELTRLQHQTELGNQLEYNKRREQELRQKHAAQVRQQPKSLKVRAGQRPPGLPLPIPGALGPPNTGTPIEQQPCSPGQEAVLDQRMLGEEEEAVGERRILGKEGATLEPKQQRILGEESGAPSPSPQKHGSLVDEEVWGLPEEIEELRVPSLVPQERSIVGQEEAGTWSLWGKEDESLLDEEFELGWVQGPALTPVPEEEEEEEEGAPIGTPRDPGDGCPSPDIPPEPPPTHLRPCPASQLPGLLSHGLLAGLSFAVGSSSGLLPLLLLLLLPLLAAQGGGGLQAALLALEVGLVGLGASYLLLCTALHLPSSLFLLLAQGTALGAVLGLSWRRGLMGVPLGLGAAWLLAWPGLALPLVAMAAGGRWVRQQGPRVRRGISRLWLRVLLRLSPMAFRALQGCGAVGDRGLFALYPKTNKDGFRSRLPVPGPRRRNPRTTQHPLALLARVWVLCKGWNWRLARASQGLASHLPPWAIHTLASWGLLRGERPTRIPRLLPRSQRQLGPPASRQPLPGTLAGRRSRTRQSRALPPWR
How it was run: as §1

Row | Structure (SMILES) | inhibition at 1 µM [1] | AMPKa1 or AMPKa2 Inhibition % at indicated screening concentration ([2]; screening concentration 1 μM) | IC50 [3] | inhibition at 1 µM [3] | inhibition at 1 µM [4] | inhibition at 10 µM [1] | AMPKa1 or AMPKa2 Inhibition % at indicated screening concentration ([2]; screening concentration 10 μM) | inhibition at 10 µM [3] | inhibition at 10 µM [4]
1 | CCOc1cc(C(=O)N2C[C@H]3CCN[C@H]3C2)ccc1Nc1cc2c(cn1)N(C)C(=O)c1ccccc1N2C [Compound T5] | ≤ 35% | E (E is ≦35%) | ≤ 50 nM | > 90% | ≤ 35% |  |  |  | 
2 | CCOc1cc(C(=O)N2CCN(C3CCN(C)CC3)CC2)ccc1Nc1cc2c(cn1)N(C)C(=O)c1ccccc1N2C [Compound T8] | ≤ 35% | E (E is ≦35%) | ≤ 50 nM | > 90% | ≤ 35% |  |  |  | 
3 | CCOc1cc(C(=O)N2CC[C@@H](NCCF)C2)ccc1Nc1cc2c(cn1)N(C)C(=O)c1ccccc1N2C [Compound T9] | ≤ 35% | E (E is ≦35%) | ≤ 50 nM | > 90% | ≤ 35% |  |  |  | 
4 | CCOc1cc(C(=O)N2CCC(N3CC[C@@H](O)C3)CC2)ccc1Nc1cc2c(cn1)N(C)C(=O)c1ccccc1N2C [Compound T10] | ≤ 35% | E (E is ≦35%) | ≤ 50 nM | > 90% | ≤ 35% |  |  |  | 
5 | CCOc1cc(C(=O)N2CCC(N3CC[C@H](O)C3)CC2)ccc1Nc1cc2c(cn1)N(C)C(=O)c1ccccc1N2C [Compound T11] | ≤ 35% | E (E is ≦35%) | ≤ 50 nM | > 90% | ≤ 35% |  |  |  | 
6 | CCOc1cc(C(=O)N2CCN(CCN(C)C)CC2)ccc1Nc1cc2c(cn1)N(C)C(=O)c1ccccc1N2C [Compound T14] | ≤ 35% | E (E is ≦35%) | ≤ 50 nM | > 90% | ≤ 35% |  |  |  | 
7 | CCOc1cc(C(=O)N2CCN(CCN3CCOCC3)CC2)ccc1Nc1cc2c(cn1)N(C)C(=O)c1ccccc1N2C [Compound T15] | ≤ 35% | E (E is ≦35%) | ≤ 50 nM | > 90% | ≤ 35% |  |  |  | 
8 | CCOc1cc(C(=O)N2CCN(C(C)=O)CC2)ccc1Nc1cc2c(cn1)N(C)C(=O)c1ccccc1N2C [Compound T18] | ≤ 35% | E (E is ≦35%) | ≤ 50 nM | > 90% | ≤ 35% |  |  |  | 
9 | CCOc1cc(C(=O)N2CC[C@@H](N3CCN(C)CC3)C2)ccc1Nc1cc2c(cn1)N(C)C(=O)c1ccccc1N2C [Compound T20] | ≤ 35% | E (E is ≦35%) | ≤ 50 nM | > 90% | ≤ 35% |  |  |  | 
10 | CCOc1cc(C(=O)N2CC[C@H](C#N)C2)ccc1Nc1cc2c(cn1)N(C)C(=O)c1ccccc1N2C [Compound T22] | ≤ 35% | E (E is ≦35%) | ≤ 50 nM | > 90% | ≤ 35% |  |  |  | 
11 | CCOc1cc(C(=O)N2CCC(N3CCCN(C)CC3)CC2)ccc1Nc1cc2c(cn1)N(C)C(=O)c1ccccc1N2C [Compound T31] | ≤ 35% | E (E is ≦35%) | ≤ 50 nM | > 90% | ≤ 35% |  |  |  | 
12 | CN1CCN(C2CCN(C(=O)c3ccc(Nc4cc5c(cn4)N(C)C(=O)c4ccccc4N5C)c(OCCF)c3)CC2)CC1 [Compound T34] | ≤ 35% | E (E is ≦35%) | ≤ 50 nM | > 90% | ≤ 35% |  |  |  | 
13 | CCOc1cc(C(=O)N2CCC(NC3CCN(C)CC3)C2)ccc1Nc1cc2c(cn1)N(C)C(=O)c1ccccc1N2C (stereo not shown) [Compound T42] | ≤ 35% | E (E is ≦35%) | 50 to 100 nM | > 90% | ≤ 35% |  |  |  | 
14 | CCOc1cc(C(=O)N2CCC(N3CCN(C)CC3)CC2)ccc1Nc1cc2c(cn1)N(C)C(C(F)(F)F)c1ccccc1N2C (stereo not shown) [Compound T47] |  |  | > 500 nM |  |  | ≤ 35% | E (E is ≦35%) | 50 to 75% | ≤ 35%
15 | CC(C)Oc1cc(C(=O)N2CCC[C@H](O)C2)ccc1Nc1cc2c(cn1)N(C)C(=O)c1ccccc1N2C [Compound T48] |  |  | 101 to 500 nM |  |  | ≤ 35% | E (E is ≦35%) | > 90% | ≤ 35%
16 | CC(C)Oc1cc(C(=O)N2CCN(C3CCN(C)CC3)CC2)ccc1Nc1cc2c(cn1)N(C)C(=O)c1ccccc1N2C [Compound T49] | ≤ 35% | E (E is ≦35%) | 50 to 100 nM | > 90% | ≤ 35% |  |  |  | 
17 | CC(C)Oc1cc(C(=O)N2CC[C@@H](NCCF)C2)ccc1Nc1cc2c(cn1)N(C)C(=O)c1ccccc1N2C [Compound T50] | ≤ 35% | E (E is ≦35%) | 101 to 500 nM | 75 to 90% | ≤ 35% |  |  |  | 
